Assay [1] relates to Firmicutes, Actinobacteria and Bacteroidetes. As to the kind of experiment: Agar-dilution antibacterial assay, human gut anaerobic commensals (panel summary). It counts as cell-based. The following applies: for antibacterial activity against firmicutes, actinobacteria and bacteroidetes (normal GI flora): summary in words. The procedure: (§1) Representatives of human gut anaerobic commensals belonging to the 3 major phyla, Firmicutes, Actinobacteria and Bacteroidetes were tested in standard agar-dilution antibacterial assays run under anaerobic conditions. Firmicutes and Actinobacteria are part of the healthy human gut and their levels are compromised in Crohn's patients.

The subject of assay [2] is ATCC 15702 Bifidobacterium infantis. Put plainly: Agar-dilution antibacterial assay under anaerobic conditions. In kind it is cell-based. The following applies: ATCC15702, Actinobacteria. The procedure:
as §1

Assay [3] concerns MMX 1722 Lactobacillus casei. The description is as above. It counts as cell-based. As to conditions: Lacticaseibacillus casei, Firmicutes. The procedure:
as §1

Assay [4] concerns ATCC 23272 Lactobacillus reuteri. The description is as above. In kind it is cell-based. The following applies: Limosilactobacillus reuteri, ATCC23272, Firmicutes. The procedure: as §1
Assay [5] deals with MMX 10069 Bifidobacterium adolescentis. The description is as above. It counts as cell-based. As to conditions: Actinobacteria. The procedure: as §1
Assay [6] concerns MMX 6660 Streptococcus intermedius. The description is as above. As to conditions: Firmicutes. In kind it is cell-based. The procedure:
as §1

For assay [7], the system named is MMX 9711 Bacteroides salyersiae. Described as above. In kind it is cell-based. The following applies: Bacteroidetes. The procedure:
as §1

Assay [8] has as its system ATCC 25986 Collinsella aerofaciens. The description is as above. It counts as cell-based. As to conditions: ATCC25986, Actinobacteria. The procedure:
as §1

Assay [9] relates to MMX 9797 Clostridium innocuum. The assay is described as above. In kind it is cell-based. The following applies: Firmicutes. The procedure: as §1
Assay [10] has as its system MMX 3478 Bacteroides fragilis. The description is as above. It counts as cell-based. The following applies: Bacteroidetes. The procedure:
as §1

The test system of assay [11] is ATCC 12290 Bacteroides thetaiotaomicron. Put plainly: microbe, parasite or virus in culture. In kind it is cell-based. The procedure: as §1
Assay [12] concerns Crohn's AIEC Isolates. As to the kind of experiment: microbe, parasite or virus in culture. As to conditions: Escherichia coli.
Assay [13] relates to Crohn's AIEC Isolates. The following applies: AIEC Crohn's clinical isolates.
Assay [14] has as its system AIEC strain (Phylotype D). As to the kind of experiment: GI AIEC decolonization murine model. In kind it is in vivo, C57BL/6J mice. As to conditions: 30 mg/kg by oral gavage, FIG. 1. The procedure:
A GI AIEC decolonization murine model studies were performed using a previously published murine model as the basis and run in accordance with animal ethical guidelines at an external contract research organization. Healthy C57BL/6J mice were first administered streptomycin by oral gavage. An AIEC strain (Phylotype D) was then administered at approximately 1-5×10^6 cfu per mouse by oral gavage and fecal pellets were enumerated for AIEC burden. Upon stable colonization (usually after 48 h post-AIEC administration), mice were sorted into three groups of 4 animals each. […] The third group was the control and was given an equivalent volume of sterile saline by oral gavage. Fecal pellets were recovered at various times as indicated on the X-axis of FIG. 1 and AIEC burden quantified by dilution and plating. Two successive fecal pellets were recovered from each mouse per group to sufficiently power the data.

The subject of another assay is gut microbiome. Put plainly: Post-treatment measurement of microbiome health (16S rRNA gene sequencing of fecal pellets). It counts as in vivo, mice. The following applies: 30 mg/kg oral gavage once a day for 3 days, p<0.05. The procedure:
Mice were dosed once a day for 3 consecutive days post AIEC stable GI colonization. Fecal pellets from four mice (1-2 per mouse) were pooled and subjected to bacterial DNA enrichment and analyzed using the Illumina MiSeq 2. Bacterial abundance and diversity was quantified using 16S rRNA gene sequencing data, analyzed and compared with naïve mice.

[15] abbreviates: ATCC12290, Bacteroidetes, anaerobic agar dilution, read-out: MIC.

Values after ≈ are worked out from the molar mass of the structure shown. Where two headings read alike, the source gives them in different places.

Consider `Cc1ncc([N+](=O)[O-])n1CCO` [Metronidazole], for which the “antibacterial activity against firmicutes, actinobacteria and bacteroidetes (normal GI flora)” value (“antibacterial activity … (normal GI flora)” below) in [1] is on record as “broad potent antibacterial activities”. Moreover, the MIC in [2] is 8 µg/mL (≈ 46.7 µM); in assay [3], above 64 µg/mL; in assay [4], above 64 µg/mL; in assay [5], 8 µg/mL (≈ 46.7 µM); in assay [6], above 64 µg/mL; in [7], 2 µg/mL (≈ 11.7 µM). In addition, the MIC in assay [8] turned out to be 1 µg/mL (≈ 5.84 µM); in assay [9], 1 µg/mL (≈ 5.84 µM); in assay [10] it was 8 µg/mL (≈ 46.7 µM); in [11] (ATCC12290), 0.25 µg/mL (≈ 1.46 µM).
In the case of `CO[C@@]1(NC(=O)C(C(=O)O)c2ccsc2)C(=O)N2[C@@H](C(=O)O)C(C)(C)S[C@@H]21` (stereo partly drawn) [Temocillin, temocillin], the MIC in [1] (certain firmicutes, actinobacteria and bacteroidetes) is above 256 µg/mL; in [2], above 256 µg/mL; in [3], above 256 µg/mL; in [4] it was above 256 µg/mL; in assay [5], above 256 µg/mL; in assay [6], above 256 µg/mL. Moreover, the MIC in assay [7] is above 256 µg/mL; in assay [8], above 256 µg/mL; in assay [9], above 256 µg/mL; in assay [10], 256 µg/mL (≈ 618 µM); in the assay on Crohn's AIEC Isolates [12] (Crohn's AIEC isolate #14), 16 µg/mL (≈ 38.6 µM); against Crohn's AIEC Isolates [12] (Crohn's AIEC isolate #32), 4 µg/mL (≈ 9.65 µM). The MIC in the assay on Crohn's AIEC Isolates [12] (Crohn's AIEC isolate #35) was 16 µg/mL (≈ 38.6 µM); with Crohn's AIEC Isolates [12] (Crohn's AIEC isolate #40), 8 µg/mL (≈ 19.3 µM); with Crohn's AIEC Isolates [12] (Crohn's AIEC isolate #49), 4 µg/mL (≈ 9.65 µM); in the assay on Crohn's AIEC Isolates [12] (Crohn's AIEC isolate #51), 8 µg/mL (≈ 19.3 µM); in assay [11] (setting [15]) it was above 256 µg/mL. The “antibacterial activity … (normal GI flora)” value in assay [1] is listed as “little or no effect on the normal GI flora”. In addition, in the assay on Crohn's AIEC Isolates [12], the MIC50 was 4 to 8 µg/mL (≈ 9.65 to 19.3 µM). Also, the “antibacterial activity vs. ciprofloxacin resistant isolates” value in the assay with Crohn's AIEC Isolates [13] is recorded as “maintains antibacterial activity vs. ciprofloxacin resistant isolates”. Further, the “AIEC burden in feces (log10 bacterial burden)” value in assay [14] is “effective at lowering AIEC burden in the murine GI tract and performed as well as the current standard-of-care antibiotic, ciprofloxacin”; in assay [14] (listed as temocillin), “effective at lowering the AIEC burden in the murine GI tract”. Moreover, in assay [14] (post-treatment), the “AIEC burden after cessation of treatment (rebound)” value is listed as “effective at maintaining the AIEC burden low for days after cessation of treatment”. Moreover, in [14] (post-treatment), the “time AIEC bacterial growth remained low after treatment” value is reported as “at least 7 days”. Also, the “richness (number of OTUs)” value with gut microbiome (FIG. 2A) is “comparable to the untreated (naive) mice and were higher than ciprofloxacin”. The “diversity (Shannon index)” value in the assay on gut microbiome (FIG. 2B) was “comparable to the untreated (naive) mice and were higher than ciprofloxacin”.
Regarding `O=C(O)c1cn(C2CC2)c2cc(N3CCNCC3)c(F)cc2c1=O` [Ciprofloxacin], the “antibacterial activity … (normal GI flora)” value in assay [1] is reported as “broad potent antibacterial activities”. The MIC was found to be 4 µg/mL (≈ 12.1 µM) in assay [2]; 1 µg/mL (≈ 3.02 µM) in assay [3]; 32 µg/mL (≈ 96.6 µM) in assay [4]; 32 µg/mL (≈ 96.6 µM) in assay [5]; 1 µg/mL (≈ 3.02 µM) in assay [6]; 16 µg/mL (≈ 48.3 µM) in assay [7]. The MIC was 0.5 µg/mL (≈ 1.51 µM) in assay [8] and 16 µg/mL (≈ 48.3 µM) in [10].
Consider `CO[C@H]1/C=C/O[C@@]2(C)Oc3c(C)c(O)c4c(O)c(c5c(nc6cc(C)ccn65)c4c3C2=O)NC(=O)/C(C)=C\C=C\[C@H](C)[C@H](O)[C@@H](C)[C@@H](O)[C@@H](C)[C@H](OC(C)=O)[C@@H]1C` [Rifaximin], for which the “antibacterial activity … (normal GI flora)” value in [1] is listed as “broad potent antibacterial activities”. For the same compound, the MIC in assay [2] was found to be 0.125 µg/mL (≈ 0.159 µM); in [3], 0.25 µg/mL (≈ 0.318 µM); in [4], 0.06 µg/mL (≈ 0.0763 µM); in [5], 0.5 µg/mL (≈ 0.636 µM); in assay [6], 0.5 µg/mL (≈ 0.636 µM); in [7] it was 0.5 µg/mL (≈ 0.636 µM). Besides, the MIC was at most 0.03 µg/mL in assay [8], above 32 µg/mL in [9], 0.25 µg/mL (≈ 0.318 µM) in assay [10] and at most 0.03 µg/mL in assay [11] (setting [15]).

(Values after patent publication US12396984B2, “Managing microbial dysbiosis with temocillin” (Entasis Therapeutics, Inc., priority 2019, dated 2025).)
